Activity calls are given as the source filed them.
Tests used:
[1] = P. falciparum Dd2 growth inhibitors, dose response, SYBR Green, dry powder samples, set 9 (AID 1159568); format: functional, cell-based
[2] = biological target: T1, Apoptotic protease-activating factor 1 (Homo sapiens, UniProt O14727); format: functional
T1 sequence (O14727 whole entry): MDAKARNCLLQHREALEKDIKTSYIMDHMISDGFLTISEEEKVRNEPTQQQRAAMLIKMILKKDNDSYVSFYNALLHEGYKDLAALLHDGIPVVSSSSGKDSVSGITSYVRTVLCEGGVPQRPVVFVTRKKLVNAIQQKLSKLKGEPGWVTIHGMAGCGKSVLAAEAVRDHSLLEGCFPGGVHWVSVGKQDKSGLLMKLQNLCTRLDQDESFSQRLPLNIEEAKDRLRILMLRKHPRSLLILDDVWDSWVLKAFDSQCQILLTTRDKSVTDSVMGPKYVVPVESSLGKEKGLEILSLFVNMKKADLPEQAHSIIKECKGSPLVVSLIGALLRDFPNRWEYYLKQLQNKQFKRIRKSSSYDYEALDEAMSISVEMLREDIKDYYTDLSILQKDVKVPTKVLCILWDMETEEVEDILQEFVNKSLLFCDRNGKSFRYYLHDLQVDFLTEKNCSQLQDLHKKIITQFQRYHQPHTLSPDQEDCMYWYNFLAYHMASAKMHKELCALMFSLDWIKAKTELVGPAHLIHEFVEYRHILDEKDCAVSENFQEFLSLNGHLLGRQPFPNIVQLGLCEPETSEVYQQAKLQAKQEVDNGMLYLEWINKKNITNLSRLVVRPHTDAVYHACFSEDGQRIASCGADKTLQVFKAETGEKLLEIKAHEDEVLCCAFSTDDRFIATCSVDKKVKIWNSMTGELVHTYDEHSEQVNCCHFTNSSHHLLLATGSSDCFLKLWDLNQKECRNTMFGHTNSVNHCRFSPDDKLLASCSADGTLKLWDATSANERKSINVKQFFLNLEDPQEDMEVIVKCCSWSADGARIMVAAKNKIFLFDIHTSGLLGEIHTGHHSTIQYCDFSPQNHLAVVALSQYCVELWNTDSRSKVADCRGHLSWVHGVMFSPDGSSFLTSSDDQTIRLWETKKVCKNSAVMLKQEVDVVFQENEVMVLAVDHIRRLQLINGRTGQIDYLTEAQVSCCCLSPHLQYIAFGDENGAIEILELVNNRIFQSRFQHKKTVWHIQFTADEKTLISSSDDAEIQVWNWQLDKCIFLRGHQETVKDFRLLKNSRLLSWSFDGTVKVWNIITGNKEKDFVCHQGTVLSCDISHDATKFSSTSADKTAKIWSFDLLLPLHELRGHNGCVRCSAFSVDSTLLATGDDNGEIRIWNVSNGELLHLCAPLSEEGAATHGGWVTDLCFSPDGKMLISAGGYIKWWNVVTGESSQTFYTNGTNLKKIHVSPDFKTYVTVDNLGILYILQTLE

[3] = biological target: T2, Microphthalmia-associated transcription factor (Homo sapiens, UniProt O75030); assay: TRPM1 promoter luciferase signal decrease, dose response, MITF inhibitor project, cell-based, SK-MEL-5, cherry-picked, set 3 (AID 493073); format: functional
T2 sequence (O75030 whole entry): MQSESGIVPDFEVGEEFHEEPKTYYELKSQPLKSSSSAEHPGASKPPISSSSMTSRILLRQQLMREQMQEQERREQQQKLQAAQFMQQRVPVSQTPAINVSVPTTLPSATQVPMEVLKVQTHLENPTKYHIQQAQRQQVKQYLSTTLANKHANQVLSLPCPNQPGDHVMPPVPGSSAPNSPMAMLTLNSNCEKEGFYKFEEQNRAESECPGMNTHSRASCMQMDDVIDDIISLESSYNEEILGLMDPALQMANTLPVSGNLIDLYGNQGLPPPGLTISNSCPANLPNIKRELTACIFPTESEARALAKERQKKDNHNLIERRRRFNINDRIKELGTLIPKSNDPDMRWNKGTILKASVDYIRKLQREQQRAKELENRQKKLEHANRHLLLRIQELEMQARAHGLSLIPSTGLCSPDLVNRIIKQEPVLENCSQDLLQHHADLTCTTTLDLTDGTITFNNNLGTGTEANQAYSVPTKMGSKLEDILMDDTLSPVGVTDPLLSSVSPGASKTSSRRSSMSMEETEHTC

[4] = A375 melanoma cell cytotoxicity, dose response, counter-screen for MITF inhibitor project, CellTiter-Glo luminescence, dry powder, set 2 (AID 624489); format: functional, cell-based; details: A-375;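 note: actives are compounds lowering A375 viability meaning general cytotoxicity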
[5] = A375 melanoma cell viability loss, dose response, counter-screen for MITF inhibitor project, CellTiter-Glo luminescence, dry powder, set 4 (AID 624364); format: functional, cell-based; details: A-375;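 note: A375 melanoma cells are MITF independent so this is a counter screen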
[6] = biological target: T3, Histone-lysine N-methyltransferase NSD2 (Homo sapiens, UniProt O96028); format: biochemical
T3 sequence (O96028 whole entry): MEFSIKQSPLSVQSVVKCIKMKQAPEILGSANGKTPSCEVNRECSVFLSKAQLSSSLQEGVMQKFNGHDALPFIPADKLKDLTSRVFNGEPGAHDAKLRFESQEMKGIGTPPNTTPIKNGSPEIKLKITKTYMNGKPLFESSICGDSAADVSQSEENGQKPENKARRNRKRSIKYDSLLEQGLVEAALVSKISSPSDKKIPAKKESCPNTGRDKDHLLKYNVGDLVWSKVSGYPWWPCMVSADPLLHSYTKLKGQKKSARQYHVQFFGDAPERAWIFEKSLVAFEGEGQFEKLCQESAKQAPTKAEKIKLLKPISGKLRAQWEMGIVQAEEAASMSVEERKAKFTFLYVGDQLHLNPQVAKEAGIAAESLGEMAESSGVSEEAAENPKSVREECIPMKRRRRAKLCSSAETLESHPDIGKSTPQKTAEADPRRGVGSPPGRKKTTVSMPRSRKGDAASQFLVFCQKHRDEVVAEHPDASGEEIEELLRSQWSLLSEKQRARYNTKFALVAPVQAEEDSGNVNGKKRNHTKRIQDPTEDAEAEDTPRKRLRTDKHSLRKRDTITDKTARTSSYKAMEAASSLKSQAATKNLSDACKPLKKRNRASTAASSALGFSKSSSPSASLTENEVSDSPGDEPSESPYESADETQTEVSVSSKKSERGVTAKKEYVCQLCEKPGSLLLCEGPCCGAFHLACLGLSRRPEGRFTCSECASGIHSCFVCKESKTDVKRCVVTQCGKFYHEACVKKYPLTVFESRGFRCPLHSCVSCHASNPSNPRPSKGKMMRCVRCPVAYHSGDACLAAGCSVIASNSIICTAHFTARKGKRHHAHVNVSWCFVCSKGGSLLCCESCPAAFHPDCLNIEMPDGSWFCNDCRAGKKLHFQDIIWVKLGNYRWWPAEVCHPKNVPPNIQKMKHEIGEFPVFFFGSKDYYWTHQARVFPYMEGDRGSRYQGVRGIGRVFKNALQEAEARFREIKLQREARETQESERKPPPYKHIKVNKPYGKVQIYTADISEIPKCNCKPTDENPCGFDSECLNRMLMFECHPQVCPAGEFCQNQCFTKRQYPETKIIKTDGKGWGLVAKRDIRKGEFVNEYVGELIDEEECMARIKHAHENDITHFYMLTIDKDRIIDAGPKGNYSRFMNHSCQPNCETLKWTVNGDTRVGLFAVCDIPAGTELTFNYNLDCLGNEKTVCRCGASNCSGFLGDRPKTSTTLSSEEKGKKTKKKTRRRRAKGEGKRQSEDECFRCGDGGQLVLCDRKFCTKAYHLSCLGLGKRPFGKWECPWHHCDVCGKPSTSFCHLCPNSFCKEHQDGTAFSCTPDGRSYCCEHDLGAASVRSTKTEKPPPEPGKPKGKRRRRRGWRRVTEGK

[7] = biological target: Nonstructural protein 1 (Influenza A virus, UniProt Q194T2); format: functional, Influenza A virus (A/California/07/2009(H1N1))
Nonstructural protein 1, sequence (Q194T2 whole entry): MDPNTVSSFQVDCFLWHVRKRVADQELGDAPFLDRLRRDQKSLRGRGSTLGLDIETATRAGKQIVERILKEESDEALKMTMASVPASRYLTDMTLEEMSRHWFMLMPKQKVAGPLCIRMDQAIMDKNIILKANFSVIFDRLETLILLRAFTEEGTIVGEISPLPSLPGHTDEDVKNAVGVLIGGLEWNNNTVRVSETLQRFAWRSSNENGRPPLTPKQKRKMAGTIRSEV

[8] = biological target: T4, Caspase-7 (Homo sapiens, UniProt P55210); assay: human caspase-7 inhibitors, dose response, selectivity assay for caspase-6 inhibitor project, biochemical, DEVD-R110 fluorescence, cherry-pick (AID 743295)
T4 sequence (P55210 whole entry): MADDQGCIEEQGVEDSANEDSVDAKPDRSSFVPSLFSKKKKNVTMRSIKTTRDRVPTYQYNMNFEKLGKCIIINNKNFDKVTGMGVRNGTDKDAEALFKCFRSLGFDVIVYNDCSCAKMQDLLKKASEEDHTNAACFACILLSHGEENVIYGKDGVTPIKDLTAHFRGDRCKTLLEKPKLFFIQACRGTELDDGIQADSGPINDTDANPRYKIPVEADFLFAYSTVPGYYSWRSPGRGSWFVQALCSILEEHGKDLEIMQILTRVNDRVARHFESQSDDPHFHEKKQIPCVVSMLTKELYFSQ

[9] = biological target: Caspase-9 (Homo sapiens, UniProt P55211); assay: caspase-9 enzyme inhibition, dose response, selectivity assay for caspase-6 inhibitor project, biochemical, fluorescence, plate reader, cherry-picked samples (AID 743293)
Caspase-9, sequence (P55211 1-315 limits assumed): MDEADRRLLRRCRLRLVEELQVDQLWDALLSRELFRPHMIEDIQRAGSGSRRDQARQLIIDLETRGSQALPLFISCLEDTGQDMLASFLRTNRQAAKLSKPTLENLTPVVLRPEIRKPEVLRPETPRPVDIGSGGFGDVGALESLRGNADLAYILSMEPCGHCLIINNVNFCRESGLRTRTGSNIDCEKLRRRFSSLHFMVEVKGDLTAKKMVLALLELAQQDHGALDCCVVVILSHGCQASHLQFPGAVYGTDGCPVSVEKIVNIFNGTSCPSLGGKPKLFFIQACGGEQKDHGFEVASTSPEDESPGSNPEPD
Caspase-9, sequence (P55211 331-416 limits assumed): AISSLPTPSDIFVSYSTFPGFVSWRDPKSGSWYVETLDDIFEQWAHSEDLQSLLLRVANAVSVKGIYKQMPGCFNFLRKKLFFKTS

[10] = biological target: T5, Caspase-6 (Homo sapiens, UniProt P55212); assay: human caspase-6 inhibitors, dose response, biochemical, VEID-R110 fluorescence, cherry-pick (AID 720632)
T5 sequence (P55212 whole entry): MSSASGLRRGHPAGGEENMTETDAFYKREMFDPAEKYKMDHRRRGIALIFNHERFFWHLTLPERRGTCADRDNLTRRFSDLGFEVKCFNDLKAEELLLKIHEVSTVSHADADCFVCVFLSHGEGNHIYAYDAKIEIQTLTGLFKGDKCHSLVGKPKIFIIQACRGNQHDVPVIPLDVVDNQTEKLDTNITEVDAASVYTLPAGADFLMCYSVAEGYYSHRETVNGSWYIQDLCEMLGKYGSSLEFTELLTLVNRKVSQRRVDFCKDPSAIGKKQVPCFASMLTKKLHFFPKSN

[11] = biological target: Caspase-8 (Homo sapiens, UniProt Q14790); assay: caspase-8 inhibition counter-screen, dose response, selectivity assay for caspase-6 inhibitor project, biochemical, Z-IETD-R110 fluorescence, cherry-picked samples (AID 743294)
Caspase-8, sequence (Q14790 217-374 limits assumed): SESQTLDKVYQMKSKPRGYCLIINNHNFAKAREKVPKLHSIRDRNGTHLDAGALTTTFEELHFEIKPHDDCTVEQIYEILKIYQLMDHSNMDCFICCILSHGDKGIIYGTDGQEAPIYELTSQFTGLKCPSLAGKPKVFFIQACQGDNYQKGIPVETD
Caspase-8, sequence (Q14790 385-479 limits assumed): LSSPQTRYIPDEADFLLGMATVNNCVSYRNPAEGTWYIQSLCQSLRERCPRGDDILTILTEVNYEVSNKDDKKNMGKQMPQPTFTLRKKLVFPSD

[12] = biological target: T6, Tyrosyl-DNA phosphodiesterase 2 (Homo sapiens, UniProt O95551); assay: human TDP2 enzyme inhibitors, dose response, biochemical, epi absorbance, IC50 (AID 743297)
T6 sequence (O95551 whole entry): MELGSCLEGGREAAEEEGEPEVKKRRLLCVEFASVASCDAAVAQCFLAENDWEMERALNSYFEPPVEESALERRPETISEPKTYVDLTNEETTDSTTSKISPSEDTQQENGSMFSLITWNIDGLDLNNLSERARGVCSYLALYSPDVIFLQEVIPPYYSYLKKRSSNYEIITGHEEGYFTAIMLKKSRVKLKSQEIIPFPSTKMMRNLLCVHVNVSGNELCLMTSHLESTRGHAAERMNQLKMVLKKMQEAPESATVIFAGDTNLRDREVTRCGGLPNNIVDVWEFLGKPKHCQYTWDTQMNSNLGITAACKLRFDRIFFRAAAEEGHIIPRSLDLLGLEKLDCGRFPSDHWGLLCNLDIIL

[13] = Artemis endonuclease inhibitor potency, dose response, biochemical, fluorescence intensity (AID 720701); format: functional;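 note: Artemis endonuclease enzyme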
[14] = HeLa 2N DNA content increase, dose response, cell-based, IC50 (AID 1117349); format: functional
[15] = HeLa 4N DNA content increase, dose response, cell-based, IC50 (AID 1117351); format: functional
[16] = biological target: Glutathione-S-transferase (Schistosoma japonicum, UniProt Q26513); assay: biotin-GST/anti-GST TR-FRET signal inhibitors, dose response, artefact control for Vif-APOBEC3G degradation inhibitor project, biochemical (AID 1117362); format: functional
Glutathione-S-transferase, sequence (Q26513 whole entry): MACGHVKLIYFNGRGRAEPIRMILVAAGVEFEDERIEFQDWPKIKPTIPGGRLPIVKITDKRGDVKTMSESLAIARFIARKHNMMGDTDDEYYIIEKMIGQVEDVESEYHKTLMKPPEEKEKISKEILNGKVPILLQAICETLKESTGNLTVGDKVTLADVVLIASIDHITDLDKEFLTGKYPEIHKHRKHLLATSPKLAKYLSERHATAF

[17] = inhibitors of Vif binding to APOBEC3G peptide, primary screen, biochemical, TR-FRET, GST-Vif 1-94, biotin-A3G peptide, dose response retest (AID 1117319); format: functional;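 note: TR-FRET signal of purified GST-Vif binding a biotinylated A3G peptide; inhibitors lower the FRET signal by blocking Vif and A3G binding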
[18] = P. falciparum 3D7-ScDHODH growth inhibitors, dose response, SYBR Green, dry powder samples (AID 1159570); format: functional, cell-based;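 note: parasite growth measured after 72 hours of compound exposure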
[19] = HepG2 cell cytotoxicity, dose response, cytotoxicity control, cherry-picked samples (AID 1159577); format: functional, cell-based
[20] = P. falciparum Dd2 growth inhibitors, dose response, SYBR Green, dry powder samples (AID 1159566); format: functional, cell-based;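 note: potency for growth inhibition with lower SYBR green DNA signal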
[21] = HepG2 cell cytotoxicity, dose response, cytotoxicity control, plate reader, dry powder samples (AID 1159569); format: functional, cell-based;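 note: inhibitor potency with signal falling toward the positive control level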
[22] = P. falciparum ATP4 D1247Y mutant growth inhibitors, dose response, NITD609-resistant line, SYBR Green, dry powder (AID 1159571); format: functional, cell-based;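 note: parasites synchronized at ring stage by sorbitol before testing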
[23] = P. falciparum Dd2 growth inhibitors, dose response, SYBR Green, cherry-picked samples (AID 1159567); format: functional, cell-based

## O=C(Nc1ccc(F)cc1)N1C[C@@H]2[C@H](c3ccccc31)[C@@H](CO)N2Cc1ccccc1Cl
[1]
  AC50: 12.3 µM (active)

## CCCNC(=O)N1[C@H](CO)[C@H](c2ccc(C#Cc3cccc(F)c3)cc2)[C@@H]1C#N
[1]
  AC50: 8.55 µM (active)

## CN1CCN(C2=C(NS(=O)(=O)c3ccccc3)C(=O)c3ccccc3C2=O)CC1
[2]
  IC50: 39.1 µM (active)
[3]
  AC50: 6.9 µM (active)
[4]
  AC50: 28.1 µM (active)
[5]
  AC50: 44.6 µM (active)

## O=C1C(NS(=O)(=O)c2ccc(Br)cc2)=C(N2CCCCC2)C(=O)c2ccccc21
[6]
  AC50: 6.22 µM (active)
[7]
  IC50: 14.5 µM (active)
[4]
  AC50: > 70 µM (inactive)
[5]
  AC50: > 70 µM (inactive)

## O=C1NC(=O)C(=Cc2ccccc2[N+](=O)[O-])S1
[8]
  AC50: 9.01 µM (active)
[9]
  AC50: 16.1 µM (active)
[10]
  AC50: 3.66 µM (active)
[11]
  AC50: 21 µM (active)
[12]
  IC50: 13.6 µM (inactive)

## O=C1c2ccccc2C(=O)N1OCc1cccc(Cl)c1
[13]
  IC50: 2.09 µM (active)

## CC(C)OC(=O)OCOP(=O)(CO[C@H](C)Cn1cnc2c(N)ncnc21)OCOC(=O)OC(C)C
[14]
  IC50: > 10 µM (inactive)
[15]
  IC50: > 10 µM (inactive)

## Cn1c(C(=O)NCCN2CCOCC2)cc2c(=O)n(C)c3ccccc3c21
[16]
  IC50: > 100 µM (active)
[17]
  IC50: > 100 µM (active)

## COc1ccccc1C#Cc1ccc([C@@H]2[C@@H](CO)N3CCCCN(CCC(F)(F)F)C[C@H]23)cc1
[18]
  AC50: 0.418 µM (active)
[19]
  AC50: 36.5 µM (active)
[20]
  AC50: 0.254 µM (active)
[21]
  AC50: 9.58 µM (active)
[22]
  AC50: 0.221 µM (active)
[23]
  AC50: 1.13 µM (active)
